Patent US20020148008A1, “Gene which regulates the dormancy of wheat seed” (priority 2000, published 2002)

Experiments:
Assay in all cases: Abscisic acid-sensitivity of seed embryo (seeds cut in halves, sprouting and sprout stretching)
Format in all cases: in vivo
[1] = test system: Minaminokomugi wheat seeds (strong dormancy)
Experimental: (§1) Next, seeds obtained from 3 varieties Minaminokomugi, Sanin 1 and Tozan 18) and seeds in which dormancy has been disrupted (Minaminokomugi, Sanin 1) were soaked individually in 5% (W/V) Benlate T(DuPont, USA) for 10 minutes, then sterilized by washing with distilled water. The grains of these wheat seeds were cut in halves to be laid in pet dish. A section where 8 mL of abscisic acid (ABA) solution was added and a section where 8 mL of distilled water was added were produced for each seed, followed by culturing at 22° C. for 6 days to determine the sprouting rate and the degree of sprout stretching.

[2] = test system: Minaminokomugi wheat seeds (the dormancy has been disrupted)
Experimental: as §1

[3] = test system: Sanin 1 wheat seeds (the dormancy has been disrupted)
Experimental: as §1

[4] = test system: Sanin 1 wheat seeds (weak dormancy)
Experimental: as §1

[5] = test system: Tozan 18 wheat seeds (weak dormancy)
Experimental: as §1

## CC1=CC(=O)CC(C)(C)[C@@]1(O)/C=C/C(C)=C\C(=O)O [ABA, abscisic acid]
[1]; Minaminokomugi, seeds cut in halves, + 10 μM ABA, 22° C., 6 days
  Sprouting Rate (%): 0%
[1]; seed of Minaminokomugi with strong dormancy
  abscisic acid-sensitivity: strong abscisic acid-sensitivity
[2]; Minaminokomugi (dormancy disrupted), seeds cut in halves, + 10 μM ABA, 22° C., 6 days
  Sprouting Rate (%): 70%
[2]; seeds of Minaminokomugi in which dormancy has been disrupted
  abscisic acid-sensitivity: weak abscisic acid-sensitivity or insensitivity
[3]; Sanin 1 (dormancy disrupted), seeds cut in halves, + 10 μM ABA, 22° C., 6 days
  Sprouting Rate (%): 100%
[3]; seeds of Sanin 1 in which dormancy has been disrupted
  abscisic acid-sensitivity: weak abscisic acid-sensitivity or insensitivity
[4]; Sanin 1, seeds cut in halves, + 10 μM ABA, 22° C., 6 days
  Sprouting Rate (%): 100%
[4]; seeds of Sanin 1 with weak dormancy
  abscisic acid-sensitivity: weak abscisic acid-sensitivity or insensitivity
[5]; Tozan 18, seeds cut in halves, + 10 μM ABA, 22° C., 6 days
  Sprouting Rate (%): 100%
[5]; seeds of Tozan 18 with weak dormancy
  abscisic acid-sensitivity: weak abscisic acid-sensitivity or insensitivity
